TGI and IC50 data for one compound are collected here from ChEMBL document CHEMBL4813994, “Discovery of novel and potent PARP/PI3K dual inhibitors for the treatment of cancer” (Eur J Med Chem, 2021).

The subject of experiment [1] is MDA-MB-468. Nature of the experiment: Antitumor activity against human MDA-MB-468 cells xenografted in BALB/c mouse assessed as tumor growth inhibition at 50 mg/kg, ip administered for 32 days along with GDC-0980 relative to control. The experiment is classed as functional. The settings on record: time 32 day. (Xenograft models place foreign cells or tissue in a host animal.)

For a further experiment, the system named is MDA-MB-231. The experiment in a line: Antiproliferative activity against human BRCA proficient MDA-MB-231 cells assessed as reduction in cell growth incubated for 7 days by cell titer-glo assay. The experiment is classed as functional, cell-based. The note with it: MDA-MB-231, 168 h. For orientation: Cellular ATP, detected with luciferase, serves as a proxy for viable cell number.

The test system of experiment [2] is MDA-MB-468. Nature of the experiment: Antitumor activity against human MDA-MB-468 cells xenografted in BALB/c mouse assessed as tumor growth inhibition at 50 mg/kg, ip once daily administered for 32 days relative to control. The note with it: time 32 day. The experiment is classed as functional.
In another experiment the test system is SW-620. Nature of the experiment: Antiproliferative activity against human BRCA-2 proficient SW-620 cells assessed as reduction in cell growth incubated for 7 days by cell titer-glo assay. The note with it: SW-620, 168 h. Format: functional, cell-based.
Experiment [3] deals with MDA-MB-468. Nature of the experiment: Antiproliferative activity against human BRCA proficient MDA-MB-468 cells assessed as reduction in cell growth incubated for 7 days by cell titer-glo assay. The note with it: MDA-MB-468, 168 h. The experiment is classed as functional, cell-based.
The test system of another experiment is HCT-116. The experiment in a line: Antiproliferative activity against human BRCA-2 deficient HCT-116 cells assessed as reduction in cell growth incubated for 7 days by cell titer-glo assay. The experiment is classed as functional, cell-based. The note with it: HCT-116, 168 h.
For the next experiment, the system named is HCC1937. Nature of the experiment: Antiproliferative activity against human BRCA-1 deficient HCC1937 cells assessed as reduction in cell growth incubated for 7 days by cell titer-glo assay. Format: functional, cell-based. The settings on record: HCC1937, 168 h.

The structures appear in SMILES notation. pIC50: −log10 of the molar value.

Consider `O=C(c1cc(Cc2n[nH]c(=O)c3ccccc23)ccc1F)N1CCN(C(=O)C2CC2)CC1` [OLAPARIB], for which the TGI – broadly, the reduction of tumour growth relative to the control group – was found to be 45.93% with MDA-MB-468 [1] and 27.91% in the experiment with MDA-MB-468 [2]. In addition, the negative-log IC50 (pIC50) with MDA-MB-231, in the experiment on SW-620, in the experiment with MDA-MB-468 [3], in the experiment with HCT-116 and in the experiment on HCC1937 was under 5.00 in each case.
